From US9206188B2, “Substituted pyrrolo[2,3-b]pyridines as ITK and JAK inhibitors” (Arrien Pharmaceuticals LLC, priority 2013, dated 2015)
Where two headings read alike, the source gives them in different places. One block for each molecule: values may come before it.

Experiments:
[1] = system: IL-2 release from CD4+ T cells; test: IL-2 release from CD4+ T cells using HTRF; format: cell-based; conditions: read-out: inhibition of IL-2 release from CD4+ T cells
[2] = system: Anti-CD3e antibody induced CD4+ T cell cytokine-IL-2, IL-4 and IFN-γ production; test: Anti-CD3e antibody induced CD4+ T cell cytokine production in male BALB/c mice; format: in vivo; conditions: compared to Positive control; 1.5 hrs post-antibody treatment
Experimental: 1H-pyrrolo[2,3-b]pyridine series of compounds Mice IL-2, IL-4 and IFN-g: 60 mg/Kg is highly efficacious. There is a significant increase in serum IL-2, IL-4 and IFN-gamma (P<0.001) of Positive Control animals compared to negative control animals.

JAK3 = JAK3 (Homo sapiens (Human), UniProt P52333); test: JAK3 kinase assay (radiometric filter binding, 10 μM ATP); format: biochemical
Sequence of JAK3 (P52333 whole entry): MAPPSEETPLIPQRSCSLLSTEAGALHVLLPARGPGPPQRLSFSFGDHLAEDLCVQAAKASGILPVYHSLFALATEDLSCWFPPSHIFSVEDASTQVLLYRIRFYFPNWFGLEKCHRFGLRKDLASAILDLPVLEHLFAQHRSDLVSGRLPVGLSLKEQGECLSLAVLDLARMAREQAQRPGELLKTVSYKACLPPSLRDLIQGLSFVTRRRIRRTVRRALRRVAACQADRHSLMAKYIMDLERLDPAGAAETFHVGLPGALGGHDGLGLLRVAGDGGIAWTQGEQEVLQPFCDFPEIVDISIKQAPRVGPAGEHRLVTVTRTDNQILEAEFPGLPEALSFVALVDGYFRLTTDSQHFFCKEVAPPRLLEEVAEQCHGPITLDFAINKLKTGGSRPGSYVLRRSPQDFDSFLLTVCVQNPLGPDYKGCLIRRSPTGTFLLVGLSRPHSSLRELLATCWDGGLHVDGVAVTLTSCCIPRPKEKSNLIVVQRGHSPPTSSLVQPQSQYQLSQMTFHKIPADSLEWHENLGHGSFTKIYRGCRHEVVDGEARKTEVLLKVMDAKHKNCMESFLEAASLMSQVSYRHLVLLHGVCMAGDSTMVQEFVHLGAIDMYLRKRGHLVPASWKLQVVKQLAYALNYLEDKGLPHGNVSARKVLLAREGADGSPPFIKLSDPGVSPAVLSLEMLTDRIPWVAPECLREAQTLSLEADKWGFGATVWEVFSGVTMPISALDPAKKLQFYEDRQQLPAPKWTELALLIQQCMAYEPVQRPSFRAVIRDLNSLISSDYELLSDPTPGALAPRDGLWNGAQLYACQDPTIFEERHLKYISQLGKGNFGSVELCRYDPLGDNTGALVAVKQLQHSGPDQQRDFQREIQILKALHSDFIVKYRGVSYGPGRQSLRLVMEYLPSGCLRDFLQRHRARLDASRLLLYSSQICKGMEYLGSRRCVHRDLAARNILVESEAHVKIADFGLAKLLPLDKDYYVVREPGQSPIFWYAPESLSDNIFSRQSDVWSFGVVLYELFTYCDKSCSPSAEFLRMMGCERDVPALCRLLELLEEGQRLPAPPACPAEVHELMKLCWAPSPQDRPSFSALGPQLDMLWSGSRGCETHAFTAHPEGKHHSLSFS

[3] = Pharmacokinetics in male Sprague Dawley rats; format: in vivo; conditions: rat, plasma
Experimental: The bio-availability and pharmacokinetics of some compounds of the present invention were examined in male Sprague Dawley rats. A total of 6 male rats were used in the study. The study was performed using parallel design (n=3) with serial sampling.
Dose formulations were prepared on the day of doing. Blood samples were collected at 0.083 (only IV), 0.25, 0.5, 1, 2, 4, 8 and 24 h post-dose. At each time point, approximately 0.2 mL of blood was withdrawn from each cannulated rat through jugular vein and transferred to a pre-labeled microfuge tube containing 20 μL of 200 mm K2EDTA permL of blood. Following collection of blood sample, equal volume of heparinized saline was flushed into jugular vein of rat. The blood samples were centrifuged at 5000 g for 5 min at 4±2° C. The plasma was separated within 30 min of scheduled time and stored below −60° C. until bio-analysis. […] The pharmacokinetic parameters for select EXAMPLES were calculated using the non-compartmental analysis tool of validated WinNonlin® software (Version 5.2).

ITK = ITK (Homo sapiens (Human), UniProt Q08881); test: ITK kinase assay (radiometric filter binding, 10 μM ATP); format: biochemical
Sequence of ITK (Q08881 whole entry): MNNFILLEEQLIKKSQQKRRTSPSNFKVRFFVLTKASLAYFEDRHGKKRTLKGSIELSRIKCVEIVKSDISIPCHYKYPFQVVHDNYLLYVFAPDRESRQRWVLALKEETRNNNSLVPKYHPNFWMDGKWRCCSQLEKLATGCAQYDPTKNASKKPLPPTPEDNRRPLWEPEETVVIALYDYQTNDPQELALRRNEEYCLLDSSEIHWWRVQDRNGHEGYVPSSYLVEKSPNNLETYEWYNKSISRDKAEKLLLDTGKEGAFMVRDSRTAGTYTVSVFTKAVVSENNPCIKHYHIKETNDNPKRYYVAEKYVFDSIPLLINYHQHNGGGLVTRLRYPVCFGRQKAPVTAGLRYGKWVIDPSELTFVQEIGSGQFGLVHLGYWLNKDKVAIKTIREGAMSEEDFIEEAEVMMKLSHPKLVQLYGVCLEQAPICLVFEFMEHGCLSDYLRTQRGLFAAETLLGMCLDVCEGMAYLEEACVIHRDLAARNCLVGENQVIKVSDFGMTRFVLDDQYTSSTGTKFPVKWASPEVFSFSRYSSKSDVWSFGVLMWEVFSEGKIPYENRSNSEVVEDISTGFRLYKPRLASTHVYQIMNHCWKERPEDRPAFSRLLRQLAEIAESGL

T cell receptor = test: SelectScreen cell-based pathway profiling, T cell receptor, NFAT-bla Jurkat, anti-CD3:CD28 stimulated; conditions: NFAT-bla Jurkat cells, anti-CD3:CD28 stim
[4] = system: Established Type II Collagen Arthritis; test: 11 day mouse established type II collagen arthritis, PO, BID; format: in vivo, DBA/1OlaHsd Mouse
From the text: Effects of 1H-pyrrolo[2,3-b]pyridine Series of Compounds Administered PO, BID in 11 Day DBA/1OlaHsd Mouse Established Type II Collagen Arthritis

IL-4/STAT6 = test: SelectScreen cell-based pathway profiling, IL-4/STAT6, STAT6-bla RA1, IL-4 stimulated; conditions: STAT6-bla RA1 cells, IL-4 stim, 10-point titration
JAK/STAT [5] = test: SelectScreen cell-based pathway profiling, JAK/STAT, SIE-bla HEK 293T, IFN-gamma stimulated; conditions: SIE-bla HEK 293T cells, IFN-gamma stim
JAK2/STAT5 = test: SelectScreen cell-based pathway profiling, JAK2/STAT5, irf1-bla TF1, EPO stimulated; conditions: irf1-bla TF1 cells, EPO stim
JAK/STAT [6] = test: SelectScreen cell-based pathway profiling, JAK/STAT, SIE-bla HEK 293T, IL-6 stimulated; conditions: SIE-bla HEK 293T cells, IL-6 stim
[7] = IV 5 mg/kg, solution, male Sprague Dawley rats, mean±SD, n=3
[8] = PO 20 mg/kg, solution, male Sprague Dawley rats, mean±SD, n=3
[9] = 10-dose IC50 mode, 10 μM ATP, read-out: JAK3 kinase inhibition
[10] = 10-dose IC50 mode, 10 μM ATP, read-out: ITK kinase inhibition

IC50 [1]: 350 nM
Molecule: COc1cc(C)c(Sc2cnc(NC(=O)c3ccc(CNC(C)C(C)(C)C)cc3)s2)cc1C(=O)N1CCN(C(C)=O)CC1 (stereo not shown) [BMS509744]

Molecule: C[C@@H]1C[C@H]2[C@@H]3CCC4=CC(=O)C=C[C@]4(C)[C@@]3(F)[C@@H](O)C[C@]2(C)[C@@]1(O)C(=O)CO [Dexamethasone]
serum IFN-gamma [2]: significant decrease | serum IL-2 [2]: significant decrease | serum IL-4 [2]: significant decrease

IC50 (JAK3; read-out: biochemical IC50 against JAK3): 100 to 1000 nM | bioavailability ([3]; male, Sprague Dawley, PO 20 mg/kg vs IV 5 mg/kg, AUCinf and nominal doses used, read-out: F (bioavailability)): 15% | AUC(0-inf) [3, 7]: 2620 ± 647 ng·h/mL | AUC(0-t) [3, 7]: 2600 ng·h/mL | clearance [3, 7]: 33.4 ± 9.57 mL/min/kg | half-life [3, 7]: 32.4 ± 3 min | Cmax ([3]; IV 5 mg/kg, solution, male Sprague Dawley rats, mean±SD, n=3, read-out: Cmax (back extrapolated concentration at time zero)): 3850 ng/mL | Vd ([3]; IV 5 mg/kg, solution, male Sprague Dawley rats, mean±SD, n=3, read-out: Vss): 1.61 ± 0.28 L/kg | AUC(0-inf) [3, 8]: 1600 ± 183 ng·h/mL | AUC(0-t) [3, 8]: 1580 ng·h/mL | Cmax ([3]; PO 20 mg/kg, solution, male Sprague Dawley rats, mean±SD, n=3, read-out: Cmax): 853 ng/mL | Tmax ([3]; PO 20 mg/kg, solution, male Sprague Dawley rats, median (range), n=3): 15 min | IC50 (ITK; read-out: biochemical IC50 against ITK): 100 to 1000 nM
Molecule: C=CC(=O)Nc1cccc(-c2cnc3[nH]cc(Cl)c3c2)c1 [Example 7, N-(3-(3-chloro-1H-pyrrolo[2,3-b]pyridin-5-yl)phenyl)acrylamide]

IC50 (JAK3; [9]): < 100 nM | IC50 (ITK; [10]): < 100 nM
Molecule: COc1cc(F)c(C)cc1-c1c[nH]c2ncc(-c3cc(F)cc(NC(=O)/C=C/CN(C)C)c3C)cc12 [Example 172, (E)-4-(dimethylamino)-N-(5-fluoro-3-(3-(4-fluoro-2-methoxy-5-methylphenyl)-1H-pyrrolo[2,3-b]pyridin-5-yl)-2-methylphenyl)but-2-enamide]

IC50 (JAK3; [9]): < 100 nM | IC50 (ITK; [10]): < 100 nM
Molecule: COc1cc(F)c(C)cc1-c1c[nH]c2ncc(-c3cc(F)cc(NC(=O)/C(C)=C/C(C)(C)C)c3C)cc12 [Example 173, (E)-N-(5-fluoro-3-(3-(4-fluoro-2-methoxy-5-methylphenyl)-1H-pyrrolo[2,3-b]pyridin-5-yl)-2-methylphenyl)-2,4,4-trimethylpent-2-enamide]

IC50 (T cell receptor): 615 nM
Molecule: Cn1cc(C2=C(c3cn(CCCSC(=N)N)c4ccccc34)C(=O)NC2=O)c2ccccc21 [Ro-31-8220]

Molecule: C[C@@H]1CCN(C(=O)CC#N)C[C@@H]1N(C)c1ncnc2[nH]ccc12 [Tofacitinib]
effectiveness, suppression of the inflammatory response ([4]; collagen-induced arthritis in mice): 97% | body weight ([4]; series 100 mg/kg group, Tofacitinib 60 mg/Kg): body weight change from day 1 | fever ([4]; treated mice, in vivo studies): had fever | serum IFN-gamma [2]: significant decrease | serum IL-2 [2]: significant decrease | serum IL-4 [2]: significant decrease

Molecule: (E)-N-(3-(3-methyl-1H- pyrazolo[3,4-b]pyridin-5- yl)phenyl)acrylamide [Example 51]
IC50 (JAK3; read-out: JAK3 kinase inhibition): > 100 nM | IC50 (ITK; read-out: ITK kinase inhibition): > 100 nM

Molecule: JAK Inhibitor I
IC50 (IL-4/STAT6): 14.5 nM | IC50 (JAK/STAT [5]): 83.5 nM | IC50 (JAK2/STAT5): 6.92 nM | IC50 (JAK/STAT [6]): 22 nM
